Assay results taken from ChEMBL document CHEMBL1136031, “8-Aryl xanthines potent inhibitors of phosphodiesterase 5” (Bioorg Med Chem Lett, 2002).
pIC50: −log10 of the molar value. ≈ marks a conversion by molar mass, not a printed value.

Columns and labels:
Phosphodiesterase 3 = Phosphodiesterase 3 (Homo sapiens, UniProt Q14432+Q13370); experiment: Inhibition of human platelet Phosphodiesterase 3
Phosphodiesterase 6 = experiment: Inhibitory concentration against bovine retina phosphodiesterase 6 activity; type: tissue-based
[1] = target: cGMP-specific 3',5'-cyclic phosphodiesterase (Homo sapiens, UniProt O76074); experiment: Inhibitory activity against human platelet Phosphodiesterase 5 (PDE5)
Phosphodiesterase 1 = Phosphodiesterase 1 (Bos taurus, UniProt Q01061+P14100); experiment: Inhibition of bovine heart Phosphodiesterase 1 (PDE1); type: protein assay
[2] = Partition coefficient (logP); type: physicochemical; details: octanol/water
Caco-2 [3] = experiment: Caco-2 permeability as biopharmaceutical property; type: functional, cell-based; details: Homo sapiens
[4] = Ratio of IC50 against human platelet PDE5 to that against bovine retina PDE6
[5] = In vitro microsome metabolism clearance in rat was determined; type: ADME; details: microsomes
[6] = Volume in steady state distribution value was determined; type: ADME, organism-based; details: rat, in vivo; read-out: Vss
[7] = Bioavailability; type: ADME, organism-based; details: rat, in vivo; read-out: BAV
[8] = The pharmacokinetic property, Half-life was determined; type: ADME, organism-based; details: rat, in vivo
[9] = Kinetic solubility at pH 5, ca; type: physicochemical; details: buffer
[10] = Kinetic solubility at pH 7.4, ca; type: physicochemical; details: buffer
[11] = In vitro microsome metabolism clearance in human was determined; type: ADME; details: microsomes
Homo sapiens = organism: Homo sapiens; experiment: Caco-2 permeability was determined; type: ADME
[12] = Kinetic solubility at pH 7.4; type: physicochemical; details: buffer
[13] = Kinetic solubility at pH 5; type: physicochemical; details: caco-2, pH 5
[14] = Log D value at pH 7.4; type: physicochemical; details: buffer
[15] = The pharmacokinetic property, Half-life in rat in vivo; type: ADME, organism-based
[16] = Kinetic solubility at pH 5.9; type: physicochemical; details: buffer
[17] = Kinetic solubility at pH 6.9, ca; type: physicochemical; details: buffer
[18] = In vitro microsome metabolism clearance in human was determined; High; type: ADME; details: microsomes
[19] = Kinetic solubility at pH 5; ca; type: physicochemical; details: buffer
Caco-2 [20] = experiment: Caco 2 permeability is determined; type: functional, cell-based; details: Homo sapiens

Compound | IC50 (Phosphodiesterase 6) [µM] | pIC50 [1] | Ratio [4] | also measured
C=CCCn1c(=O)n(C)c(=O)c2nc(-c3cc(S(=O)(=O)N4CCN(C)CC4)ccc3OCC)[nH]c21 | 5.6 | 7.00 |  | IC50 (Phosphodiesterase 3): > 10 µM; IC50 (Phosphodiesterase 1): > 10 µM
CCCOc1ccc(S(=O)(=O)N(C)CCN(C)C)cc1-c1nc2c(=O)n(C)c(=O)n(CC(C)C)c2[nH]1 | 1.15 | 7.80 | 72 | logP [2]: 4.9; Papp (Caco-2 [3]): 3 nm/s
CCCOc1ccccc1-c1nc2c(=O)n(C)c(=O)n(CC(C)C)c2[nH]1 | 0.087 | 7.22 | 1.4 | 
CCOc1ccc(S(=O)(=O)N2CCN(C)CC2)cc1-c1nc2c(=O)n(C)c(=O)n(CC3CC3)c2[nH]1 | 0.217 | 7.55 |  | IC50 (Phosphodiesterase 3): > 10 µM; IC50 (Phosphodiesterase 1): > 10 µM
CC(C)COc1ccccc1-c1nc2c(=O)n(C)c(=O)n(CC(C)C)c2[nH]1 | 0.073 |  | 0.7 | 
CCCOc1ccc(S(=O)(=O)N2CCN(C(=O)N(C)C)CC2)cc1-c1nc2c(=O)n(C)c(=O)n(CC(C)C)c2[nH]1 | 0.014 | 8.46 | 4 | microsomal CLint [5]: 185 µL/min/mg; Vd [6]: 3.4 L/kg; bioavailability [7]: 0%; half-life [8]: 0.367 h; logP [2]: 4.04; solubility kinetic [9]: 0.025 mg/mL (≈ 43.4 µM); solubility kinetic [10]: 0.025 mg/mL (≈ 43.4 µM); Papp (Caco-2 [3]): 229 nm/s; microsomal CLint [11]: 71 µL/min/mg
CCOc1ccc(S(=O)(=O)N2CCN(CCO)CC2)cc1-c1nc2c([nH]1)c(=O)n(C)c(=O)n2CC(C)C |  | 7.72 |  | 
CCCCOc1ccccc1-c1nc2c([nH]1)c(=O)n(C)c(=O)n2CC(C)C |  | 6.87 |  | 
CC(C)Cn1c(=O)n(C)c(=O)c2[nH]c(-c3cc(S(=O)(=O)N4CCN(C)CC4)ccc3OC(C)C)nc21 | 0.077 | 7.80 | 5 | 
CCCOc1ccc(S(=O)(=O)N2CCN(CCO)CC2)cc1-c1nc2c(=O)n(C)c(=O)n(CC(C)C)c2[nH]1 | 0.015 | 8.46 | 4 | 
COCCOc1ccccc1-c1nc2c([nH]1)c(=O)n(C)c(=O)n2CC(C)C |  | 5.82 |  | 
CCOc1ccc(S(=O)(=O)N2CCN(CCO)CC2)cc1-c1nc2c(=O)n(C)c(=O)n(CC(C)C)c2[nH]1 | 0.068 |  | 3.5 | 
CCCOc1ccc(S(N)(=O)=O)cc1-c1nc2c([nH]1)c(=O)n(C)c(=O)n2CC(C)C |  | 8.30 |  | 
CCOc1ccc(S(=O)(=O)N2CCN(C)CC2)cc1-c1nc2c(=O)n(C)c(=O)n(Cc3ccc(OC)cc3)c2[nH]1 | 1.21 | 7.23 |  | IC50 (Phosphodiesterase 3): > 10 µM; IC50 (Phosphodiesterase 1): 4.52 µM
CCOc1ccc(S(=O)(=O)N2CCN(C)CC2)cc1-c1nc2c(=O)[nH]c(=O)n(CC(C)C)c2[nH]1 |  | 6.50 |  | IC50 (Phosphodiesterase 3): > 10 µM; IC50 (Phosphodiesterase 1): > 10 µM
CCCOc1ccc(S(=O)(=O)N2CCN(CCN(C)C)CC2)cc1-c1nc2c([nH]1)c(=O)n(C)c(=O)n2CC(C)C |  | 7.62 |  | 
CCCOc1ccc(S(=O)(=O)N2CCN(CCOC)CC2)cc1-c1nc2c([nH]1)c(=O)n(C)c(=O)n2CC(C)C |  | 7.92 |  | 
CCOc1ccc(S(=O)(=O)N2CCN(CC)CC2)cc1-c1nc2c(=O)n(C)c(=O)n(CC(C)C)c2[nH]1 | 0.203 |  | 7.5 | 
CC(C)COc1ccc(S(=O)(=O)N2CCN(C)CC2)cc1-c1nc2c(=O)n(C)c(=O)n(CC(C)C)c2[nH]1 | 0.102 |  | 1.1 | 
CCCn1c(=O)n(C)c(=O)c2[nH]c(-c3cc(S(=O)(=O)N4CCN(C)CC4)ccc3OCC)nc21 | 0.345 | 7.00 |  | 
CCCOc1ccc(S(=O)(=O)N2CCN(CCOC)CC2)cc1-c1nc2c(=O)n(C)c(=O)n(CC(C)C)c2[nH]1 | 0.091 |  | 7.5 | 
CCCOc1ccc(S(=O)(=O)N(CC)CCN(C)C)cc1-c1nc2c(=O)n(C)c(=O)n(CC(C)C)c2[nH]1 | 0.242 | 7.96 | 22 | 
CCOc1ccc(S(=O)(=O)N2CCN(C)CC2)cc1-c1nc2c(=O)n(C)c(=O)n(CC(C)CC)c2[nH]1 (stereo not given) | 0.083 | 8.05 |  | microsomal CLint [5]: 178 µL/min/mg; Vd [6]: 9.7 L/kg; bioavailability [7]: 11%; half-life [8]: 1.53 h; logP [2]: 3.81; Papp (Homo sapiens): 345 nm/s; solubility kinetic [12]: 0.1 mg/mL (≈ 193 µM); solubility kinetic [13]: > 0.2 mg/mL; IC50 (Phosphodiesterase 3): 6.03 µM; IC50 (Phosphodiesterase 1): > 10 µM; microsomal CLint [11]: 114 µL/min/mg
CCCOc1ccc(S(=O)(=O)N2CCN(CC)CC2)cc1-c1nc2c(=O)n(C)c(=O)n(CC(C)C)c2[nH]1 | 0.003 |  | 0.5 | 
CCOc1ccc(S(=O)(=O)N2CCN(C)CC2)cc1-c1nc2c(=O)n(C)c(=O)n(CC(C)(C)C)c2[nH]1 | 2.38 | 7.04 |  | IC50 (Phosphodiesterase 3): 5.57 µM
CC(C)Cn1c(=O)n(C)c(=O)c2[nH]c(-c3ccccc3F)nc21 |  | < 5.00 |  | 

Compound | IC50 (Phosphodiesterase 6) [µM] | pIC50 [1] | Ratio [4] | also measured
CCOc1ccc(S(=O)(=O)N2CCN(C)CC2)cc1-c1nc2c([nH]1)c(=O)n(C)c(=O)n2CC(C)C |  |  |  | Vd [6]: 9.7 L/kg; bioavailability [7]: 11%; logD [14]: 3.15; half-life [15]: 1.53 h; logP [2]: 3.26; solubility kinetic [16]: > 0.16 mg/mL; solubility kinetic [17]: 0.03 mg/mL (≈ 59.5 µM)
CC(C)Cn1c(=O)n(C)c(=O)c2[nH]c(-c3ccccc3O)nc21 |  | < 5.00 |  | 
CCCOc1ccc(S(=O)(=O)N2CCC(CCO)CC2)cc1-c1nc2c([nH]1)c(=O)n(C)c(=O)n2CC(C)C |  | 8.52 |  | Cl [18]: High; microsomal CLint [5]: 226 µL/min/mg; bioavailability [7]: 0%; logP [2]: 3.67; solubility kinetic [19]: 0.005 mg/mL (≈ 9.13 µM); solubility kinetic [10]: 0.005 mg/mL (≈ 9.13 µM)
CCOc1ccc(S(=O)(=O)N2CCN(C)CC2)cc1-c1nc2c([nH]1)c(=O)[nH]c(=O)n2C |  | < 5.00 |  | 
CC(C)Cn1c(=O)n(C)c(=O)c2[nH]c(-c3ccccc3OC(C)C)nc21 | 0.214 | 7.11 | 2.8 | 
CCCOc1ccc(S(=O)(=O)N2CCC(CCO)CC2)cc1-c1nc2c(=O)n(C)c(=O)n(CC(C)C)c2[nH]1 | 0.017 |  | 5.5 | Papp (Caco-2 [3]): 132 nm/s
CC(C)COc1ccc(S(=O)(=O)N2CCN(C)CC2)cc1-c1nc2c([nH]1)c(=O)n(C)c(=O)n2CC(C)C |  | 7.03 |  | 
CNc1ccccc1-c1nc2c([nH]1)c(=O)n(C)c(=O)n2CC(C)C |  | < 5.00 |  | 
CCOc1ccc(S(=O)(=O)N2CCN(C)CC2)cc1-c1nc2c(=O)n(C)c(=O)n(CC3CCCCC3)c2[nH]1 |  | 6.80 |  | 
CCOc1ccccc1-c1nc2c(=O)n(C)c(=O)n(CC(C)C)c2[nH]1 | 0.227 | 7.14 | 3.1 | 
CCCOc1ccc(S(=O)(=O)N2CCN(CC)CC2)cc1-c1nc2c([nH]1)c(=O)n(C)c(=O)n2CC(C)C |  | 8.26 |  | 
CCOc1ccc(S(=O)(=O)N2CCN(CCN(C)C)CC2)cc1-c1nc2c(=O)n(C)c(=O)n(CC(C)C)c2[nH]1 | 0.146 |  | 2.5 | 
CCCOc1ccc(S(=O)(=O)N2CCN(C)CC2)cc1-c1nc2c(=O)n(C)c(=O)n(CC(C)C)c2[nH]1 | 0.006 | 8.00 | 0.6 | 
CCCOc1ccc(S(=O)(=O)N2CCN(CCN(C)C)CC2)cc1-c1nc2c(=O)n(C)c(=O)n(CC(C)C)c2[nH]1 | 0.037 |  | 1.5 | 
CCCCCCn1c(=O)n(C)c(=O)c2[nH]c(-c3cc(S(=O)(=O)N4CCN(C)CC4)ccc3OCC)nc21 |  | 6.89 |  | 
CC(C)COc1ccccc1-c1nc2c([nH]1)c(=O)n(C)c(=O)n2CC(C)C |  | 6.98 |  | 
CC(C)Cn1c(=O)n(C)c(=O)c2[nH]c(-c3ccccc3)nc21 |  | < 5.00 |  | 
CCCCCOc1ccccc1-c1nc2c([nH]1)c(=O)n(C)c(=O)n2CC(C)C |  | 6.26 |  | 
CCOc1ccc(S(=O)(=O)N2CCN(C)CC2)cc1-c1nc2c(=O)n(C)c(=O)n(CC(C)C)c2[nH]1 | 0.1 |  | 4.9 | Papp (Caco-2 [20]): 250 nm/s; IC50 (Phosphodiesterase 3): > 10 µM; IC50 (Phosphodiesterase 1): 3.38 µM
CSc1ccccc1-c1nc2c(=O)n(C)c(=O)n(CC(C)C)c2[nH]1 |  | 5.27 |  | 
CCOc1ccc(S(=O)(=O)N2CCN(CCN(C)C)CC2)cc1-c1nc2c([nH]1)c(=O)n(C)c(=O)n2CC(C)C |  | 7.20 |  | 
CCOc1ccc(S(=O)(=O)N2CCN(CC)CC2)cc1-c1nc2c([nH]1)c(=O)n(C)c(=O)n2CC(C)C |  | 7.59 |  | 
CC(C)Cn1c(=O)n(C)c(=O)c2[nH]c(-c3ccccc3OCc3ccccc3)nc21 |  | < 5.00 |  | 
CC(C)Cn1c(=O)n(C)c(=O)c2[nH]c(-c3ccccc3N(C)C)nc21 |  | < 5.00 |  | 
CCCOc1ccc(S(N)(=O)=O)cc1-c1nc2c(=O)n(C)c(=O)n(CC(C)C)c2[nH]1 | 0.016 |  | 3 | 
CCCCOc1ccccc1-c1nc2c(=O)n(C)c(=O)n(CC(C)C)c2[nH]1 | 0.436 |  | 3.2 | 
